Results on 14 compounds are retold here after patent US10633419B2, “Immunomodulators” (BRISTOL-MYERS SQUIBB COMPANY, priority 2014, dated 2020).

Structures are written as SMILES. Starred links: 1 amine or outer side, 2 acyl side, 3 side chain; linkers in the order of their positions; H or OH if unused. Positions of bridges follow the written chain, without caps; N, C: chain ends. Non-standard residues stand in square brackets, D forms with d. Residues, ends and D or L forms follow the SMILES beside them. Groups on a side chain read outwards from the residue. *: point of attachment. Trp(1-CH2COOH) = N[C@@H](Cc1cn(CC(=O)O)c2ccccc12)C(=O)O; C18 diacid = O=C(O)CCCCCCCCCCCCCCCCC(=O)*; Phe(4-F) = N[C@@H](Cc1ccc(F)cc1)C(=O)O; γGlu = O=C(O)[C@H](CCC(=O)[*:2])N[*:1]; Ethylenediamine = C(CN[*:2])N[*:1]; Hyp = O=C(O)[C@@H]1C[C@@H](O)CN1; NMeNle = CCCC[C@H](NC)C(=O)O; Pip = O=C(O)[C@@H]1CCCCN1; Dab = NCC[C@H](N)C(=O)O; Dap = NC[C@H](N)C(=O)O

In one test the target is T1, PD-L1 (Homo sapiens, UniProt Q9NZQ7).
T1 construct: hPDL1(19-239)-TVMV-His; made in house; host or cells: HEK293T
T1 sequence (Q9NZQ7 with tags, fused parts or gaps): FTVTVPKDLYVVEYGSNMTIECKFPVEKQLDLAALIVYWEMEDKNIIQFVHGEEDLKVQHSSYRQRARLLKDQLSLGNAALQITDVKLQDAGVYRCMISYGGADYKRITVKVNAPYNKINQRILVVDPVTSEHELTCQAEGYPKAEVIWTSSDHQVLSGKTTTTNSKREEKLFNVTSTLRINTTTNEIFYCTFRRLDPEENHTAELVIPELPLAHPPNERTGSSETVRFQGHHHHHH
Kind of test: PD-1/PD-L1 Homogenous Time-Resolved Fluorescence (HTRF) binding assay (PD-1-Ig/PD-L1-His). Particulars: inhibition of PD-1-Ig binding to PD-L1-TVMV-His; value given as number; read-out: HTRF IC50. The method in brief:
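HTRF competition in dPBS with 0.1% BSA and 0.05% Tween-20: 20 nM PD-1-Ig added after 15 min compound pre-incubation with 10 nM PD-L1-His, then another 15 min. Signal (665/620 nm) after 30 min with APC anti-His (20 nM) and Eu anti-Ig (1 nM).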
As usually defined, the IC50 is the concentration needed to halve the response being measured. `CCCCCCCCCCCCCCCC(=O)N[C@@H](CCn1cc(C[C@H](NC(=O)CNC(=O)[C@@H]2CSCC(=O)N[C@@H](Cc3ccc(O)cc3)C(=O)N(C)[C@@H](C)C(=O)N[C@@H](CC(=O)O)C(=O)N3CCC[C@H]3C(=O)N[C@@H](Cc3c[nH]cn3)C(=O)N[C@@H](CCCCN)C(=O)N3C[C@H](O)C[C@H]3C(=O)N[C@@H](Cc3c[nH]c4ccccc34)C(=O)N[C@@H](CCCCN)C(=O)N[C@@H](Cc3cn(CC(=O)O)c4ccccc34)C(=O)N(C)[C@@H](CCCC)C(=O)N(C)[C@@H](CCCC)C(=O)N[C@@H](CCC(=O)O)C(=O)N2)C(N)=O)nn1)C(=O)O` [Example 14072]: the IC50 turned out to be 8.5 nM.

Turning to `CCCC[C@H]1C(=O)N(C)[C@@H](CCCC)C(=O)N[C@@H](CC(C)C)C(=O)N[C@H](C(=O)NCC(=O)N[C@@H](Cc2cn(CC[C@H](NC(=O)CCCCCCCCCCCCCCCCC(=O)O)C(=O)O)nn2)C(=O)O)CSCC(=O)N[C@@H](Cc2ccc(O)cc2)C(=O)N(C)[C@@H](C)C(=O)N[C@@H](CC(N)=O)C(=O)N2CCC[C@H]2C(=O)N[C@@H](CN)C(=O)N[C@@H](CC(C)C)C(=O)N2C[C@H](O)C[C@H]2C(=O)N[C@@H](Cc2c[nH]c3ccccc23)C(=O)N[C@@H](CCN)C(=O)N[C@@H](Cc2cn(CC(=O)O)c3ccccc23)C(=O)N1C` [Example 14095], the IC50 stood at 14 nM.

Regarding `CCCC[C@H]1C(=O)N(C)[C@@H](CCCC)C(=O)N[C@@H](CC(C)C)C(=O)N[C@H](C(=O)NCC(=O)N[C@@H](Cc2cn(CC[C@H](NC(=O)CCCCCCCCCCCCCCCCC(=O)O)C(=O)O)nn2)C(N)=O)CSCC(=O)N[C@@H](Cc2ccc(O)cc2)C(=O)N(C)[C@@H](C)C(=O)N[C@@H](CC(N)=O)C(=O)N2CCC[C@H]2C(=O)N[C@@H](CN)C(=O)N[C@@H](CC(C)C)C(=O)N2C[C@H](O)C[C@H]2C(=O)N[C@@H](Cc2c[nH]c3ccccc23)C(=O)N[C@@H](CCN)C(=O)N[C@@H](Cc2cn(CC(=O)O)c3ccccc23)C(=O)N1C` [Example 14096], the IC50 came out at 790 nM.

Regarding `CCCC[C@H]1C(=O)N(C)[C@@H](CCCC)C(=O)N[C@@H](CC(C)C)C(=O)N[C@H](C(=O)NCC(=O)N[C@@H](Cc2cn(CCOCCOCCOCCOCCOCCOCCOCCOCCOCCOCCOCCNC(=O)C[C@H](NC(=O)CCCCCCCCCCCCCCCCC(=O)O)C(=O)O)nn2)C(=O)O)CSCC(=O)N[C@@H](Cc2ccc(O)cc2)C(=O)N(C)[C@@H](C)C(=O)N[C@@H](CC(N)=O)C(=O)N2CCC[C@H]2C(=O)N[C@@H](CN)C(=O)N[C@@H](CC(C)C)C(=O)N2C[C@H](O)C[C@H]2C(=O)N[C@@H](Cc2c[nH]c3ccccc23)C(=O)N[C@@H](CCN)C(=O)N[C@@H](Cc2cn(CC(=O)O)c3ccccc23)C(=O)N1C` [Example 14103], the IC50 turned out to be 14 nM.

The test is the same for the next values; noted with them: inhibition of PD-1-Ig binding to PD-L1-TVMV-His; value given as range class; read-out: HTRF IC50.
`CCCC[C@H]1C(=O)N2CCC[C@@H]2C(=O)N[C@@H](CC(=O)O)C(=O)N[C@@H](C(C)C)C(=O)N(C)[C@@H](Cc2ccccc2)C(=O)N[C@@H](CCCN)C(=O)N2CCC[C@@H]2C(=O)N[C@@H](Cc2c[nH]c3ccccc23)C(=O)N[C@@H](Cc2ccc(O)cc2)C(=O)N[C@@H](CC(C)C)C(=O)N[C@H](C(=O)NCC(=O)N[C@@H](Cc2cn(CC[C@H](NC(=O)CCCCCCCCCCCCCCC(=O)O)C(=O)O)nn2)C(N)=O)CSCC(=O)N[C@@H](Cc2cc(F)c(F)c(F)c2)C(=O)N(C)[C@@H](Cc2ccccc2)C(=O)N1C` [Example 14073]: the IC50 is 10 to 99 nM.

Regarding `CCCC[C@H]1C(=O)N2C[C@H](O)C[C@@H]2C(=O)N[C@@H](CC(=O)O)C(=O)N[C@@H](C(C)C)C(=O)N(C)[C@@H](Cc2ccccc2)C(=O)N[C@@H](CC(=O)O)C(=O)N2CCC[C@@H]2C(=O)N[C@@H](Cc2c[nH]c3ccccc23)C(=O)N[C@@H](Cc2ccc(O)cc2)C(=O)N[C@@H](CC(C)C)C(=O)N[C@H](C(=O)NCC(=O)N[C@@H](Cc2cn(CC[C@H](NC(=O)CCCCCCCCCCCCCCC(=O)O)C(=O)O)nn2)C(N)=O)CSCC(=O)N[C@@H](Cc2cc(F)c(F)c(F)c2)C(=O)N(C)[C@@H](Cc2ccccc2)C(=O)N1C` [Example 14074], the IC50 is 10 to 99 nM.

As to `CCCC[C@H]1C(=O)N(C)[C@@H](CCCC)C(=O)N[C@@H](CCC(=O)O)C(=O)N[C@H](C(=O)NCC(=O)N[C@@H](Cc2cn(CC[C@H](NC(=O)CCCCCCCCCCCCCCC(=O)O)C(=O)O)nn2)C(N)=O)CSCC(=O)N[C@@H](Cc2ccc(O)cc2)C(=O)N(C)[C@@H](C)C(=O)N[C@@H](CC(=O)O)C(=O)N2CCC[C@H]2C(=O)N[C@@H](Cc2c[nH]cn2)C(=O)N[C@@H](CCCCN)C(=O)N2C[C@H](O)C[C@H]2C(=O)N[C@@H](Cc2c[nH]c3ccccc23)C(=O)N[C@@H](CCCCN)C(=O)N[C@@H](Cc2cn(CC(=O)O)c3ccccc23)C(=O)N1C` [Example 14075], the IC50 was 10 to 99 nM.

Take `CCCC[C@H]1C(=O)N(C)[C@@H](CCCC)C(=O)N[C@@H](CC(C)C)C(=O)N[C@H](C(=O)NCC(=O)N[C@@H](Cc2cn(CCOCCOCCOCCOCCOCCOCCOCCOCCOCCOCCOCCNC(=O)CC[C@H](NC(=O)CCCCCCCCCCCCCCCCC(=O)O)C(=O)O)nn2)C(=O)O)CSCC(=O)N[C@@H](Cc2ccc(O)cc2)C(=O)N2CCCC[C@H]2C(=O)N[C@@H](CC(N)=O)C(=O)N2CCC[C@H]2C(=O)N[C@@H](CN)C(=O)N[C@@H](CC(C)C)C(=O)N2C[C@H](O)C[C@H]2C(=O)N[C@@H](Cc2c[nH]c3ccccc23)C(=O)N[C@@H](CCN)C(=O)N[C@@H](Cc2cn(CC(=O)O)c3ccccc23)C(=O)N1C` [Example 14104]: the 50% inhibitory concentration (IC50) was in the range of 100 to 1600 nM.

Regarding `CCCC[C@H]1C(=O)N(C)[C@@H](CCCC)C(=O)N[C@@H](CC(C)C)C(=O)N[C@H](C(=O)NCC(=O)N[C@@H](Cc2cn(CCOCCOCCOCCOCCOCCOCCOCCOCCOCCOCCOCCNC(=O)CC[C@H](NC(=O)CCCCCCCCCCCCCCCCC(=O)O)C(=O)O)nn2)C(=O)O)CSCC(=O)N[C@@H](Cc2ccc(O)cc2)C(=O)N2CCCC[C@H]2C(=O)N[C@@H](CC(N)=O)C(=O)N2CCC[C@H]2C(=O)N[C@@H](CNC)C(=O)N[C@@H](CC(C)C)C(=O)N2C[C@H](O)C[C@H]2C(=O)N[C@@H](Cc2c[nH]c3ccccc23)C(=O)N[C@@H](CCN)C(=O)N[C@@H](Cc2cn(CC(=O)O)c3ccccc23)C(=O)N1C` [Example 14105], the concentration for half-maximal inhibition (IC50) is 100 to 1600 nM.

On to `CCCC[C@H]1C(=O)N(C)[C@@H](CCCC)C(=O)N[C@@H](CCC(=O)O)C(=O)N[C@H](C(=O)NCC(=O)N[C@@H](Cc2cn(CCOCCOCCOCCOCCOCCOCCOCCOCCOCCOCCOCCNC(=O)CC[C@H](NC(=O)CCCCCCCCCCCCCCCCC(=O)O)C(=O)O)nn2)C(=O)O)CSCC(=O)N[C@@H](Cc2ccc(O)cc2)C(=O)N2CCCC[C@H]2C(=O)N[C@@H](CC(N)=O)C(=O)N2CCC[C@H]2C(=O)N[C@@H](CN)C(=O)N[C@@H](CC(C)C)C(=O)N2C[C@H](O)C[C@H]2C(=O)N[C@@H](Cc2c[nH]c3ccccc23)C(=O)N[C@@H](CCN)C(=O)N[C@@H](Cc2cn(CC(=O)O)c3ccccc23)C(=O)N1C` [Example 14106], for which the IC50 lay within 100 to 1600 nM.

As to `CCCC[C@H]1C(=O)N(C)[C@@H](CCCC)C(=O)N[C@@H](CCC(=O)O)C(=O)N[C@H](C(=O)NCC(=O)N[C@@H](Cc2cn(CCOCCOCCOCCOCCOCCOCCOCCOCCOCCOCCOCCNC(=O)CC[C@H](NC(=O)CCCCCCCCCCCCCCCCC(=O)O)C(=O)O)nn2)C(=O)O)CSCC(=O)N[C@@H](Cc2ccc(O)cc2)C(=O)N2CCCC[C@H]2C(=O)N[C@@H](CC(N)=O)C(=O)N2CCC[C@H]2C(=O)N[C@@H](CNC)C(=O)N[C@@H](CC(C)C)C(=O)N2C[C@H](O)C[C@H]2C(=O)N[C@@H](Cc2c[nH]c3ccccc23)C(=O)N[C@@H](CCN)C(=O)N[C@@H](Cc2cn(CC(=O)O)c3ccccc23)C(=O)N1C` [Example 14107], the concentration for half-maximal inhibition (IC50) was in the range of 100 to 1600 nM.

In the case of `CCCC[C@H]1C(=O)N(C)[C@@H](CCCC)C(=O)N[C@@H](CCC(=O)O)C(=O)N[C@H](C(=O)NCC(=O)N[C@@H](Cc2cn(CC[C@H](NC(=O)CCCCCCCCCCCCCCCCC(=O)O)C(=O)O)nn2)C(=O)O)CSCC(=O)N[C@@H](Cc2ccc(OC)cc2)C(=O)N2CCCC[C@H]2C(=O)N[C@@H](CC(=O)O)C(=O)N2CCC[C@H]2C(=O)N[C@@H](CN)C(=O)N[C@@H](CCC(N)=O)C(=O)N2C[C@H](O)C[C@H]2C(=O)N[C@@H](Cc2c[nH]c3ccccc23)C(=O)N[C@@H](CCN)C(=O)N[C@@H](Cc2cn(CC(=O)O)c3ccccc23)C(=O)N1C` [Example 14121], the IC50 is 10 to 99 nM.

Consider `CCCC[C@H]1C(=O)N(C)[C@@H](CCCC)C(=O)N[C@@H](CC(C)C)C(=O)N[C@H](C(=O)NCC(=O)N[C@@H](Cc2cn(CC[C@H](NC(=O)CCCCCCCCCCCCCCCCC(=O)O)C(=O)O)nn2)C(=O)O)CSCC(=O)N[C@@H](Cc2ccc(F)cc2)C(=O)N2CCCC[C@H]2C(=O)N[C@@H](CC(=O)O)C(=O)N2CCC[C@H]2C(=O)N[C@@H](CN)C(=O)N[C@@H](CC(C)C)C(=O)N2C[C@H](O)C[C@H]2C(=O)N[C@@H](Cc2c[nH]c3ccccc23)C(=O)N[C@@H](CCN)C(=O)N[C@@H](Cc2cn(CC(=O)O)c3ccccc23)C(=O)N1C` [Example 14122], for which the IC50 is 10 to 99 nM.

As to `CCCC[C@H]1C(=O)N(C)[C@@H](CCCC)C(=O)N[C@@H](CC(C)C)C(=O)N[C@H](C(=O)NCC(=O)N[C@@H](CCC(=O)NCCNC(=O)CC[C@H](NC(=O)CCCCCCCCCCCCCCCCC(=O)O)C(=O)O)C(=O)O)CSCC(=O)N[C@@H](Cc2ccc(F)cc2)C(=O)N2CCCC[C@H]2C(=O)N[C@@H](CC(=O)O)C(=O)N2CCC[C@H]2C(=O)N[C@@H](CN)C(=O)N[C@@H](CC(C)C)C(=O)N2C[C@H](O)C[C@H]2C(=O)N[C@@H](Cc2c[nH]c3ccccc23)C(=O)N[C@@H](CCN)C(=O)N[C@@H](Cc2cn(CC(=O)O)c3ccccc23)C(=O)N1C` [Example 14123] ({CH2CO}-[Phe(4-F)][Pip]DP[Dap]L[Hyp]W[Dab][Trp(1-CH2COOH)][NMeNle][NMeNle]LCGE([Ethylenediamine-γGlu-C18 diacid])-OH; thioether N-14), the IC50 lay in the range of 0.3 to 9.9 nM.
